Measurements published in patent publication US11365227B2, “Peptide and pharmaceutical compositions of same for use as an antimicrobial and in cancer treatment” (UNIVERSITAT DE VALÈNCIA, priority 2017, dated 2022).
Where a SMILES comes first, the peptide text is derived from it.

System: MDA-MB-231 tumour cells
Experiment: Scanning and transmission electron microscopy of tumour cells
Assay type: cell-based, human
Settings: 100 μg/mL, 72 h
Experimental: The MDA-MB-231 cells, control or treated with 100 μg/mL of PaSK, were prepared as indicated in the section “Preparation of the samples”. The cells were fixed with Karnosky (2.5% paraformaldehyde and 0.5% glutaraldehyde) for 2 h at 4° C. After washing (centrifuging and eliminating the supernatant) they were fixed with 2% osmium tetraoxide for another 2 h, washed again and filtered with a 0.2 μm filter. The cells were then dehydrated in graded ethanol series (30°, 50°, 70°, 90°, 100°) for 10 min in each gradation. To carry out the critical point drying, the ethanol was replaced with liquid CO2, the temperature was increased to accelerate evaporation and the pressure was lowered slowly to conserve the exact shape of the cells. Finally, shading with gold palladium was performed for 2 min observing the results in the equipment FEG-SEM HITACHI S4800 at 10 Kv. […]
Both scanning electron microscopy and transmission electron microscopy provide high resolution images, which were used to view the morphological and ultrastructural changes caused by the peptide PaSK in the membrane and inside of tumour cells. The MDA-MB-231 cells were treated with the peptide PaSK at a concentration of 100 μg/mL for 72 h, and were analysed using scanning electron microscopy (FIG. 14) and transmission electron microscopy (FIG. 15). […]

CC[C@H](C)[C@H](NC(=O)[C@H](CCCNC(=N)N)NC(=O)[C@H](CCCNC(=N)N)NC(=O)[C@H](CCCCN)NC(=O)[C@H](CC(N)=O)NC(=O)[C@H](CS)NC(=O)[C@H](Cc1ccc(O)cc1)NC(=O)CNC(=O)CNC(=O)[C@H](CCCNC(=N)N)NC(=O)[C@H](CCCCN)NC(=O)[C@H](CCCNC(=N)N)NC(=O)[C@H](CCCCN)NC(=O)[C@H](CC(C)C)NC(=O)[C@H](CC(C)C)NC(=O)[C@H](CS)NC(=O)[C@H](Cc1c[nH]cn1)NC(=O)[C@H](C)NC(=O)[C@H](C)NC(=O)[C@H](CS)NC(=O)[C@H](C)NC(=O)[C@H](C)NC(=O)[C@H](Cc1c[nH]cn1)NC(=O)[C@H](CC(N)=O)NC(=O)[C@@H](NC(=O)[C@@H](N)CCCCN)C(C)C)C(=O)N[C@@H](CS)C(=O)N[C@H](C(=O)N[C@@H](CS)C(=O)N[C@@H](CCCNC(=N)N)C(=O)N[C@@H](CC(N)=O)C(=O)O)C(C)C [PaSK] (H-KVNHAACAAHCLLKRKRGGYCNKRRICVCRN-OH; N-terminus and C-terminus assumed)
morphological and ultrastructural changes: significant morphological changes
